# Measured values published in publication PMC10107917 (ACS Medicinal Chemistry Letters, 2023).
# Bridge positions count the residues as written; N and C are the ends. Peptide text beside a SMILES is read from it.
# System: furin-like enzyme activity in PANC-1 cell lysate
# Assay: Total furin-like enzyme activity in PANC-1 cell lysate
# Assay type: biochemical, human
# Details: peptide 100 µM
# Description: The presence of furin in PANC-1 cell lysate was indicated by analyzing the release of fluorescent AMC product after incubation of furin substrate (Pyr-Arg-Thr-Lys-Arg-AMC) in the lysate, as described elsewhere.[31],[32] However, we are aware that this assay tends to reflect total furin-like enzyme activity rather than the activity of furin exclusively. This is the case because the liberation of AMC may be catalyzed not only by furin but also by an enzyme with a similar substrate preference, such as other PCs.[31] […] For comparison, the effect of a strong trypsin inhibitor, […] SFTI-1, on furin-like activity was insignificant under the same assay conditions. […] It is likely that SFTI-1 may provide protection for furin inhibitors from degradation by trypsin-like proteases. […]
# µL for matriptases and 100 µL for furin. Measurements were carried out using excitation and emission wavelengths of 380 nm and 450 nm. The percentage inhibition of an enzyme was calculated relative to the control sample without an inhibitor. […]
# Total furin-like enzyme inhibition/activity in PANC-1 cell lysates
# Cell line and cell culture. The pancreatic cancer cell line, PANC-1, was obtained from the American Type Culture Collection, ATCC (Manassas, USA). PANC-1, a human pancreatic cancer cell line, was isolated from the pancreatic duct (ATCC, CRL-1469) and was cultured in Dulbecco’s Modified Eagle’s Medium (DMEM) by supplementing 10% fetal bovine serum (FBS) and 1% of penicillin/streptomycin (P/S). Cells were cultured at 37 °C with 5% CO2 in a humidified atmosphere. Cells were maintained in a 75 cm2 tissue culture flask. The medium was replaced every two days. The subcultivation ratio was […]
# Preparation of lysates. PANC-1 cells were seeded in a Petri dishes. After 24 hours, […] were collected and centrifuged at 975 × g at 4 °C for 9 minutes. The supernatant was removed, and the cells were resuspended in a cold PBS buffer. The cells were centrifuged again at 900 × g at 4 °C for 5 minutes.
# The supernatant was removed. Cells were suspended in Halt Protease Inhibitor Cocktail, EDTA-Free (100X) (Thermo Fisher Scientific). The samples were stored for 2 hours at -80°C. The samples were then defrosted and centrifuged at 16 000 × g at 4 °C for 20 minutes. The supernatant was stored at -80 […]
# The inhibitory potency of selected peptides was examined in cell lysate alone or in presence of sunflower trypsin inhibitor (SFTI-1)6 sing furin fluorogenic substrate […] (Pepta Nova, Germany). Furin activity was determined by monitoring the AMC liberation over time with a plate reader. Measurements were performed using 96-well black plates (BRAND, Germany).
# The general procedure was according to.7 In short: 20 µL of cell lysate (diluted 10 times with assay buffer pH 7.5 100 mM HEPES with 1 mM CaCl 2) was added to the well containing 60 µL of water, after 15 min in 37 °C 10 µL of peptide solution (final concentration in well 100 µM) was added. After 30 min incubation in 37 °C 10 µL substrate (100 µM final concentration) was added. […]
# Next step was addition of appropriate peptide solution
# (final concentration in well 100 µM) and 30 min incubation in 37 °C. After this time 10 µL substrate (100 µM final concentration) was added to the well. Percentage inhibition of the enzyme was calculated relative to the control sample without inhibitor.
# Human serum from plasma (Sigma Aldrich, Germany) was prepared for the assay as referred previously.8 The experiments were carried out according to the procedure described before.2 The initial concentration of the peptide solutions was 1.54 mM. Each peptide solution was then diluted 10 times with human serum and incubated at 37 °C. Immediately after the start of incubation, 1, 2, 3, 5 and 24
SMILES,effect on furin-like activity in PANC-1 cell lysate,reduction of initial enzyme activity in PANC-1 cell lysate (without SFTI-1)
"CC[C@H](C)[C@@H]1NC(=O)[C@@H]2CCCN2C(=O)[C@@H]2CCCN2C(=O)[C@H]([C@@H](C)CC)NC(=O)[C@H](CO)NC(=O)[C@H](CCCCN)NC(=O)[C@H](CCCCN)NC(=O)[C@@H](NC(=O)[C@H](CCCNC(=N)N)NC(=O)[C@@H](N)CCCCN)CSSC[C@@H](C(=O)N[C@@H](Cc2ccccc2)C(N)=O)NC1=O [FI, Lys-Arg-Cys(&)-Lys-Lys-Ser-Ile-Pro-Pro-Ile-Cys(&)-Phe-NH2, reference compound] (H-KRCKKSIPPICF-NH2; disulfide 3-11; N-terminus assumed)",reduced furin-like activity,about 50%
"CC[C@H](C)[C@@H]1NC(=O)[C@@H]2CCCN2C(=O)[C@@H]2CCCN2C(=O)[C@H]([C@@H](C)CC)NC(=O)[C@H](CO)NC(=O)[C@H](CCCCN)NC(=O)[C@H](CCCCN)NC(=O)[C@@H](NC(=O)[C@H](CCCNC(=N)N)NC(=O)[C@H](CCCNC(=N)N)NC(=O)[C@@H](N)CCCNC(=N)N)CSSC[C@@H](C(=O)N[C@@H](Cc2ccccc2)C(N)=O)NC1=O [inhibitor 3, Arg-Arg-Arg-Cys(&)-Lys-Lys-Ser-Ile-Pro-Pro-Ile-Cys(&)-Phe-NH2] (H-RRRCKKSIPPICF-NH2; disulfide 4-12)",reduced furin-like activity,
"CC[C@H](C)[C@@H]1NC(=O)[C@@H]2CCCN2C(=O)[C@@H]2CCCN2C(=O)[C@H]([C@@H](C)CC)NC(=O)[C@H](CO)NC(=O)[C@H](CCCCN)NC(=O)[C@H](CCCCN)NC(=O)[C@@H]2CSSC[C@H](NC1=O)C(=O)N[C@@H](Cc1ccccc1)C(=O)N[C@@H](CCCCN)C(=O)N[C@@H](CCCNC(=N)N)C(=O)N[C@@H](CCCNC(=N)N)C(=O)N2 [inhibitor 5, &^1Lys-Arg-Arg-Cys(&^2)-Lys-Lys-Ser-Ile-Pro-Pro-Ile-Cys(&^2)-Phe&^1] (cyclo(KRRCKKSIPPICF); disulfide 4-12)",reduced furin-like activity,
"CC[C@H](C)[C@@H]1NC(=O)[C@@H]2CCCN2C(=O)[C@@H]2CCCN2C(=O)[C@H]([C@@H](C)CC)NC(=O)[C@H](CO)NC(=O)[C@H](CCCCN)NC(=O)[C@H](CCCCN)NC(=O)[C@@H]2CSSC[C@H](NC1=O)C(=O)N[C@@H](Cc1ccccc1)C(=O)N[C@@H](CCCNC(=N)N)C(=O)N[C@@H](CCCNC(=N)N)C(=O)N[C@@H](CCCNC(=N)N)C(=O)N2 [inhibitor 6, &^1Arg-Arg-Arg-Cys(&^2)-Lys-Lys-Ser-Ile-Pro-Pro-Ile-Cys(&^2)-Phe&^1] (cyclo(RRRCKKSIPPICF); disulfide 4-12)",reduced furin-like activity,
